The text below walks through data of patent publication US7312248B2, “Control of parasites in animals by the use of novel trifluoromethanesulfonanilide oxime ether derivatives” (Schering-Plough Animal Health Corporation, priority 2004, dated 2007).

One test relates to Haemonchus contortus. The experiment in a line: Haemonchus contortus larvacidal (larval development) assay. It is filed as in vivo. Particulars: 144 h, read-out: Haemonchus contortus LD99. How it is done: a) Haemonchus Contortus Larvacidal Assay:
The effect of compounds on larval development was determined in the assay described by Gill et al. (1995, International Journal of Parasitology 25:463-470). Briefly, in this assay, nematode eggs were applied to the surface of an agar matrix containing the test compound and then allowed to develop through to the L3, infective stage (6 days). The wells for each dilution of every compound (from highest to lowest concentration) were inspected to determine the well number corresponding to the lowest concentration at which development was inhibited in 99% of the nematode larvae present (LD99). Because well numbers correspond to a two-fold serial dilution of each compound, a titre (dilution factor) is generated as 2^n−1, where n is the well number. By dividing the highest concentration tested by the titre an LD99 value can be obtained, representing the concentration required to inhibit development in 99% of the nematode larvae present. The compounds supplied as solid and viscous liquids were dissolved in DMSO. Twelve serial one-half dilutions in DMSO solution were prepared from the stock solution, each of which was then diluted ⅕ with water. Aliquots (10 μl) of each dilution were transferred to the bioassay plates to give a final concentration range of 0.024 to 50 μg/ml.

Test [1] deals with cat flea (Ctenocephalides felis). Put plainly: whole plant or invertebrate. In kind it is in vivo. Particulars: Ctenocephalides felis. How it is done:
b) Ctenocephalides felis Adulticide Assay: C. felis Single Dose Screen
Mortality of fleas was the primary endpoint in the assay. Fleas were considered dead if they didn't move or were on their sides and unable to walk or right themselves. […] The concentration chosen (1.26 μg/cm^2) was higher than that known to kill 90% of cat fleas (LC90) using the reference compound, permethrin.
The test species was the cat flea (Ctenocephalides felis). The strain used was obtained from external suppliers as pupae and held in the laboratory under testing conditions until the adults had emerged. Fifteen (15) fleas were used in a minimum of four replicates against a single concentration level (approximately 60 fleas). The insects were selected to be in the adult life stage, aged between 3 and 7 days post emergence.
The compounds to be tested were supplied as solids and were prepared in acetone as described below prior to testing. Samples were stored in a refrigerator (5±1° C.) unless otherwise specified.
During the mortality testing, the temperature was maintained at 25±1° C. Humidity was maintained at 75±5%. The base (area=159 mm^2) of a 100 mL glass Erlenmeyer (conical) flask provided the treatment surface. Flasks were pretreated with Coatasil™ glass treatment to maximise bio-availability of test compounds by preventing them from binding to glass the surface. The base of the 100 mL Erlenmeyer flask was treated with 0.5 mL of test sample in acetone and gently swirled. This volume was sufficient to cover the base of the flask. Flasks were left to dry for 24 hours before flea exposure.
Adult cat fleas were placed into a sorting chamber, which allowed fleas to jump into the Erlenmeyer flasks. Fifteen (15) adult cat fleas were collected in each flask. The top of the flasks were then covered in Parafilm™ and small holes were made to allow gas exchange. A 0.5 mL volume of acetone as a solvent control was applied to the base of an Erlenmeyer flask and the testing proceeded in the same manner described above. Cat fleas in the treatment containers were held under testing conditions for 8, 24 and/or 48 hours. Mortality was recorded at 8, 24, 8 and 24, or 24 and 48 hours. Pooled 8, 24, 8 and 24, and 24 and 48 hour mortality data were converted to percentages and are summarized by Tables 14, 14A and 14B, below.

[2] abbreviates: 8 h, read-out: C. felis Mortality (%) 8 h, 8 h, Laboratory 1 A data.

The structures appear in SMILES notation. Where two headings read alike, the source gives them in different places.

As for `C/C(=N\OCc1ccc(C(F)(F)F)cc1C(F)(F)F)c1cc(Cl)ccc1NS(=O)(=O)C(F)(F)F` [Compound 2, N-{2-[1-(2,4-bistrifluoromethylbenzyloxyimino)ethyl]-4-chlorophenyl}trifluoromethanesulfonamide], the IC99 with Haemonchus contortus was 0.1 µg/mL. The mortality at 1.26 µg/cm2, 1.26 µg/cm2 in test [1] (setting [2]) was determined as 2%.

Consider `CC/C(=N\OCc1ccc(C(C)(C)C)cc1)c1cc(Cl)ccc1NS(=O)(=O)C(F)(F)F` [Compound 5], for which the IC99 with Haemonchus contortus is 3.3 µg/mL. The mortality at 1.26 µg/cm2, 1.26 µg/cm2 in test [1] (setting [2]) came out at 8%.

For the compound `C/C(=N\OCc1ccc(C(F)(F)F)cc1)c1cc(Cl)ccc1NS(=O)(=O)C(F)(F)F` [Compound 14], the IC99 in the test with Haemonchus contortus is 0.9 µg/mL. Also, the mortality at 1.26 µg/cm2, 1.26 µg/cm2 in test [1] (setting [2]) was found to be 2%.

Consider `C/C(=N\OCc1ccc(Cl)cc1)c1cc(Cl)ccc1NS(=O)(=O)C(F)(F)F` [Compound 16], for which, in the test on Haemonchus contortus, the IC99 stood at 1.3 µg/mL. In addition, the mortality at 1.26 µg/cm2, 1.26 µg/cm2 worked out at 90% in test [1] (8 h, read-out: C. felis Mortality (%) 8 h, 8 h, Laboratory 2 B data) and 100% in test [1] (24 h, read-out: C. felis Mortality (%) 24 h, 24 h, Laboratory 2 B data).

As to `C/C(=N\OCc1ccccc1Cl)c1cc(Cl)ccc1NS(=O)(=O)C(F)(F)F` [Compound 17], the IC99 in the test on Haemonchus contortus came out at 3.5 µg/mL.

For the compound `C/C(=N\OCc1cccc(Cl)c1)c1cc(Cl)ccc1NS(=O)(=O)C(F)(F)F` [Compound 18], in the test on Haemonchus contortus, the IC99 amounted to 3.7 µg/mL.

Turning to `C/C(=N\OCc1cccc(Cl)c1Cl)c1cc(Cl)ccc1NS(=O)(=O)C(F)(F)F` [Compound 19], in the test on Haemonchus contortus, the IC99 was determined as 0.7 µg/mL.

For `C/C(=N\OCc1c(Cl)cccc1Cl)c1cc(Cl)ccc1NS(=O)(=O)C(F)(F)F` [Compound 20], the IC99 in the test with Haemonchus contortus worked out at 12 µg/mL.

For `C/C(=N\OCc1ccc(Cl)cc1Cl)c1cc(Cl)ccc1NS(=O)(=O)C(F)(F)F` [Compound 21], the IC99 in the test with Haemonchus contortus turned out to be 0.7 µg/mL. The mortality at 1.26 µg/cm2, 1.26 µg/cm2 in test [1] (setting [2]) was 5%.

`C/C(=N\OCc1ccccc1)c1cc(Cl)ccc1NS(=O)(=O)C(F)(F)F` [Compound 22]: the IC99 in the test with Haemonchus contortus was determined as 6 µg/mL.

`C/C(=N\OCc1ccc(Br)cc1)c1cc(Cl)ccc1NS(=O)(=O)C(F)(F)F` [Compound 23]: the IC99 in the test with Haemonchus contortus came out at 0.8 µg/mL.

For `C/C(=N\OCC=C(Cl)Cl)c1cc(Cl)ccc1NS(=O)(=O)C(F)(F)F` [Compound 38], the IC99 in the test with Haemonchus contortus was found to be 0.9 µg/mL. For the same compound, the mortality at 1.26 µg/cm2, 1.26 µg/cm2 in test [1] (setting [2]) turned out to be 8%.

Regarding `C/C(=N\OCc1ccccc1F)c1cc(Cl)ccc1NS(=O)(=O)C(F)(F)F` [Compound 39], in the test with Haemonchus contortus, the IC99 amounted to 7 µg/mL.

With `C/C(=N\OCc1cccc(Oc2ccccc2)c1)c1cc(Cl)ccc1NS(=O)(=O)C(F)(F)F` [Compound 47], in the test with Haemonchus contortus, the IC99 is 1.5 µg/mL.

Regarding `O=S(=O)(Nc1ccc(Cl)cc1/C(=N/OCc1ccc(Cl)cc1Cl)c1ccccc1)C(F)(F)F` [Compound 61], the IC99 in the test on Haemonchus contortus worked out at 1.7 µg/mL. Besides, in test [1] (setting [2]), the mortality at 1.26 µg/cm2, 1.26 µg/cm2 was found to be 17%.

For `O=S(=O)(Nc1ccc(Cl)cc1/C(=N/OCc1cccc(Cl)c1Cl)c1ccccc1)C(F)(F)F` [Compound 62], in the test with Haemonchus contortus, the IC99 turned out to be 3 µg/mL.

As to `O=S(=O)(Nc1ccc(Cl)cc1/C(=N/OCc1ccc(Cl)cc1)c1ccccc1)C(F)(F)F` [Compound 63], the IC99 in the test on Haemonchus contortus worked out at 1.6 µg/mL.

Take `O=S(=O)(Nc1ccc(Cl)cc1/C(=N/OCc1ccc(Br)cc1)c1ccccc1)C(F)(F)F` [Compound 64, N-{2-[(4-bromobenzyloxyimino)phenylmethyl]-4-chlorophenyl}trifluoromethanesulfonamide]: the IC99 with Haemonchus contortus is 1.4 µg/mL.

With `O=S(=O)(Nc1ccc(Cl)cc1/C=N/OCc1ccc(C(F)(F)F)cc1C(F)(F)F)C(F)(F)F` [Compound 65, N-{2-[(2,4-bistrifluoromethylbenzyloxyimino)methyl]-4-chlorophenyl}trifluoromethanesulfonamide], the IC99 in the test with Haemonchus contortus was 0.3 µg/mL. The mortality at 1.26 µg/cm2, 1.26 µg/cm2 in test [1] (setting [2]) came out at 10%.

Turning to `O=S(=O)(Nc1ccc(Cl)cc1/C(=N/OCc1ccccc1)c1ccccc1)C(F)(F)F` [Compound 66], in the test with Haemonchus contortus, the IC99 was 13 µg/mL.

For the compound `O=S(=O)(Nc1ccc(Cl)cc1/C=N/OCc1ccc(Cl)cc1Cl)C(F)(F)F` [Compound 67], the IC99 in the test on Haemonchus contortus is 0.9 µg/mL. The mortality at 1.26 µg/cm2, 1.26 µg/cm2 in test [1] (setting [2]) came out at 12%.

As to `O=S(=O)(Nc1ccc(Cl)cc1/C(=N/OCc1cccc(C(F)(F)F)c1)c1ccccc1)C(F)(F)F` [Compound 68], the IC99 in the test with Haemonchus contortus is 3.5 µg/mL.

With `O=S(=O)(Nc1ccc(Cl)cc1/C(=N/OCc1ccccc1C(F)(F)F)c1ccccc1)C(F)(F)F` [Compound 69], in the test with Haemonchus contortus, the IC99 stood at 2.7 µg/mL.

With `O=S(=O)(Nc1ccc(Cl)cc1/C=N/OCc1ccc(C(F)(F)F)cc1)C(F)(F)F` [Compound 70], the IC99 in the test with Haemonchus contortus stood at 3 µg/mL.

For `O=S(=O)(Nc1ccc(Cl)cc1/C(=N/OCc1cccc(Cl)c1)c1ccccc1)C(F)(F)F` [Compound 71], the IC99 with Haemonchus contortus came out at 3 µg/mL.

Turning to `C/C(=N\OCc1ccc(C#N)cc1)c1cc(Cl)ccc1NS(=O)(=O)C(F)(F)F` [Compound 73], the IC99 in the test with Haemonchus contortus is 5 µg/mL. In addition, the mortality at 1.26 µg/cm2, 1.26 µg/cm2 in test [1] (setting [2]) worked out at 1%.

With `N#Cc1ccc(CO/N=C(\c2ccccc2)c2cc(Cl)ccc2NS(=O)(=O)C(F)(F)F)cc1` [Compound 80], in the test with Haemonchus contortus, the IC99 stood at 3.5 µg/mL.

`O=S(=O)(Nc1ccc(Cl)cc1/C=N/OCc1ccc(Cl)cc1)C(F)(F)F` [Compound 81]: in the test with Haemonchus contortus, the IC99 is 1.7 µg/mL.

Consider `O=S(=O)(Nc1ccc(Cl)cc1/C(=N/OCc1ccc(F)cc1F)c1ccccc1)C(F)(F)F` [Compound 82], for which, in the test on Haemonchus contortus, the IC99 came out at 3.3 µg/mL.

In the case of `CC/C(=N\OCc1ccc(F)cc1)c1cc(Cl)ccc1NS(=O)(=O)C(F)(F)F` [Compound 86], the IC99 in the test on Haemonchus contortus was found to be 3.5 µg/mL.

Turning to `COc1ccc(CO/N=C(\c2ccccc2)c2cc(Cl)ccc2NS(=O)(=O)C(F)(F)F)cc1` [Compound 88], the IC99 in the test with Haemonchus contortus came to 15 µg/mL.

As to `CC/C(=N\OCc1ccc(-c2ccccc2)cc1)c1cc(Cl)ccc1NS(=O)(=O)C(F)(F)F` [Compound 94], the IC99 with Haemonchus contortus was determined as 7.5 µg/mL.

Turning to `O=S(=O)(Nc1ccc(Cl)cc1/C=N/OCc1cccc(Cl)c1Cl)C(F)(F)F` [Compound 95], the IC99 with Haemonchus contortus was 0.8 µg/mL.

With `CCC/C(=N\OCc1cccc(Cl)c1Cl)c1cc(Cl)ccc1NS(=O)(=O)C(F)(F)F` [Compound 99], in the test on Haemonchus contortus, the IC99 came to 2.5 µg/mL.

With `CCC/C(=N\OCc1ccc(Cl)c(Cl)c1)c1cc(Cl)ccc1NS(=O)(=O)C(F)(F)F` [Compound 101], in the test on Haemonchus contortus, the IC99 was 1.9 µg/mL.

On to `CCC/C(=N\OCc1ccc(Br)cc1)c1cc(Cl)ccc1NS(=O)(=O)C(F)(F)F` [Compound 102], for which the IC99 with Haemonchus contortus was 1.9 µg/mL.

`CC/C(=N\OCCCc1ccccc1)c1cc(Cl)ccc1NS(=O)(=O)C(F)(F)F` [Compound 105]: the IC99 in the test with Haemonchus contortus amounted to 3.5 µg/mL.

As for `CC/C(=N\OCc1ccccc1)c1cc(Cl)ccc1NS(=O)(=O)C(F)(F)F` [Compound 107], the IC99 in the test with Haemonchus contortus was 10 µg/mL.

For the compound `CCC/C(=N\OCCc1ccccc1)c1cc(Cl)ccc1NS(=O)(=O)C(F)(F)F` [Compound 110], the IC99 with Haemonchus contortus was found to be 5 µg/mL.

`CCC/C(=N\OCc1ccc(Cl)cc1)c1cc(Cl)ccc1NS(=O)(=O)C(F)(F)F` [Compound 112]: the IC99 in the test with Haemonchus contortus stood at 3 µg/mL.

For the compound `CCC/C(=N\OCc1cc(Br)cc(Br)c1)c1cc(Cl)ccc1NS(=O)(=O)C(F)(F)F` [Compound 113], the IC99 in the test on Haemonchus contortus turned out to be 3.8 µg/mL.

Turning to `CCC/C(=N\OCCOc1ccccc1)c1cc(Cl)ccc1NS(=O)(=O)C(F)(F)F` [Compound 115], in the test on Haemonchus contortus, the IC99 is 7.5 µg/mL.

In the case of `CC(C)/C(=N\OCc1ccc(Cl)cc1)c1cc(Cl)ccc1NS(=O)(=O)C(F)(F)F` [Compound 117], the IC99 with Haemonchus contortus was determined as 3.5 µg/mL.

Consider `CC(C)/C(=N\OCc1ccc(C2CCCCC2)cc1)c1cc(Cl)ccc1NS(=O)(=O)C(F)(F)F` [Compound 118], for which, in the test on Haemonchus contortus, the IC99 was 10 µg/mL.

For `CC(C)/C(=N\OCc1ccc(Cl)cc1Cl)c1cc(Cl)ccc1NS(=O)(=O)C(F)(F)F` [Compound 119], the IC99 in the test on Haemonchus contortus is 1.2 µg/mL.

Turning to `C/C(=N\OC(C)c1ccccc1)c1cc(Cl)ccc1NS(=O)(=O)C(F)(F)F` (stereo not shown) [Compound 122], the IC99 with Haemonchus contortus was 7 µg/mL.

Turning to `O=S(=O)(Nc1ccc(Cl)cc1-c1cc(-c2ccccc2)on1)C(F)(F)F` [Compound 225], in the test with Haemonchus contortus (lowest concentration inhibiting development in 99% of larvae, eggs to L3, 6 days, range 0.024 to 50 μg/ml), the IC99 came out at 3.2 µg/mL.
